For experiment [1], the system named is primary isolated hepatic parenchymal cells of SD rats. The experiment is described as follows: Hepatic gluconeogenesis inhibitory activity in primary hepatocytes. The format is cell-based. The conditions noted are these: for inhibition at 20 µM / inhibition at 40 µM: Rattus norvegicus, Hepatocyte, read-out: hepatic gluconeogenesis inhibitory activity. From the text:
In this embodiment, primary isolated hepatic parenchymal cells of SD rats (purchased from Experimental Animal Center of Southern Medical University) were used as a model, and berberine, a traditional Chinese medicine as a hypoglycemic agent, was used as a positive control to evaluate an impact of the novel triterpenoid compound (23R, 25E)-3β-hydroxy-23-methoxycucurbita-6,25-dien-5β,19-olide3-O-β-d-allopyranoside and Momordicoside G, and compositions thereof in different proportions (novel triterpenoid compound:Momordicoside G=1:0.5, 1:1.0, or 1:1.5) on hepatic gluconeogenesis, thereby further elaborating beneficial effects of the present invention. The process was as follows:
In-situ perfusion digestion was used to digest SD rat liver with type IV collagenase. After being dispersed, hepatocytes were transferred to a 49% Percoll separation solution for centrifugation. After supernatant was discarded, the cells adhered for 6 hours to a 24-well plate coated with 0.2% gelatin. After starvation in a serum-free low-sugar medium for 8 hours, the supernatant was discarded, the cells were washed with PBS buffer, and then a reaction solution (sugar-free DMEM containing 2 mM sodium pyruvate and 20 mM sodium lactate) was added, waiting for a sample test.
Triterpenoid compounds (a novel triterpenoid compound and Momordicoside G) were dissolved in dimethyl sulfoxide (DMSO) to prepare […] mother liquor. Through dilution with the foregoing reaction solution, the final concentrations of the triterpenoid compounds finally added into cell culture wells were 20 μM and 40 μM respectively, and the final concentration of the DMSO was 0.4%. A negative control was a reaction solution containing the DMSO with the same concentration (0.4%). Berberine, a positive control, was prepared into 40 mM with ultrapure water, the final concentrations for the test were 20 μM and 40 μM, and the final concentration of the DMSO was kept at 0.4%. To-be-tested samples were added into the cell reaction solution, and continued to be cultured for 6 hours. Then the glucose concentration in the culture medium (that is, the reaction solution) of each well was measured, and then the medium was discarded. After being washed with PBS, the cells were lysed with 250 mM NaOH, and the protein concentration was measured by using a Coomassie brilliant blue method. By reading an absorbance value, the concentration of glucose in the medium in all sample wells and the concentration of protein after lysis were determined by using a standard curve method, and a ratio of the two was used to measure an average gluconeogenesis level of the cells in the wells.

The next experiment deals with 3T3-L1 preadipocytes. Put plainly: Inhibitory activity against 3T3-L1 preadipocyte-induced differentiation (oil red O staining). The format is cell-based, mouse. Particulars: for content of lipid droplets after oil red O staining: 20 μM and 40 μM, compared with differentiation solution group. The method, then: A mouse embryonic fibroblast 3T3-L1 cell line (preadipocytes) was purchased from Shanghai Cell Bank, Chinese Academy of Sciences.
In the test, samples fell into an undifferentiation control group (cultured with a normal DMEM), a negative control group (cultured with a DMEM containing a differentiation solution), and a sample intervention group [cultured with a DMEM containing a differentiation solution+a or 40 μM triterpenoid compound or triterpenoid composition (novel triterpenoid compound:Momordicoside G=0.5, 1.0, or 1.5)]. Differentiation was induced by using a methylisobutylxanthine, dexamethasone and insulin, (MDI) induction medium (the induction medium is a differentiation solution, and the differentiation solution includes a high-sugar DMEM containing 0.5 mmol/L IBMX, 1 μmol/L DEX, 10 mg/L insulin, and 10% FCS). 3T3-L1 preadipocytes were cultured in an incubator with 5% CO2 and 37° C. saturated humidity, and cultured in the DMEM containing 10% FCS until the density of monolayer adherent cells was greater than or equal to 90%. After being washed with Hanks' balanced salt solution (HBSS), the cells were digested by trypsin, and then inoculated into a 6-well culture plate (1×10^5 cells/well). After cell contact inhibition, a fresh DMEM containing 10% FCS was used for fusion culture for 2 days. On the 3rd day (that is, the 0th day of differentiation), the cells were cultured in the differentiation solution for culture, and 0.1% DMSO and a novel triterpenoid compound (23R, 25E)-3β-hydroxy-23-methoxycucurbita-6,25-dien-5β,19-olide3-O-β-d-allopyranoside with concentration gradients of 20 μM and 40 μM or known compound Momordicoside G or a composition of the two were added in the sample intervention group. 0.1% DMSO was added in the negative control group. On the 2nd day of differentiation, the medium was replaced with a DMEM containing only 10 mg/L insulin and 10% FCS, the samples of each group continued to be cultured, and the medium was replaced once every 2 days until the experiment ended on the 8th day of differentiation. After the experiment ended, the medium was discarded, the cells were washed twice with cold PBS, and the cells were fixed with 4% paraformaldehyde solution for 60 min. After paraformaldehyde was removed and PBS was added for washing, the fixed cells were stained with an oil red O dye kit (Solarbio, G1262-4) for 1 hour, and the cells were washed with 60% isopropanol for 3 times to remove the uncolored oil red O dye and were photographed for observation. After the observation, the cells were lysed with lysate (containing 4% NP-40), and an absorbance value at 490 nm was measured, and calculated by using an OD value.

[2] abbreviates: 20 μM, 6 hours culture, primary hepatocytes.
Setting [3] is: 40 μM, 6 hours culture, primary hepatocytes.

Where two headings read alike, the source gives them in different places.

As to `COc1ccc2cc3[n+](cc2c1OC)CCc1cc2c(cc1-3)OCO2` [berberine], in experiment [1] (setting [2]), the inhibition at 20 µM was 15.6%. Further, the inhibition at 40 µM in experiment [1] (setting [3]) was determined as 35.2%.
`COC(C=C(C)C)C[C@@H](C)[C@H]1CC[C@@]2(C)C3C=CC45OC(=O)[C@]3(CC[C@]12C)C4CC[C@H](O[C@@H]1O[C@H](CO)[C@H](O)[C@H](O)[C@H]1O)C5(C)C` (stereo partly drawn) [novel triterpenoid compound, (23R, 25E)-3β-hydroxy-23-methoxycucurbita-6,25-dien-5β,19-olide3-O-β-d-allopyranoside]: the inhibition at 20 µM was found to be 32.1% in experiment [1] (6 h) and 35.5% in the experiment with 3T3-L1 preadipocytes (Mus musculus, 3T3-L1, 20 μM, 8th day of differentiation, oil red O, absorbance 490 nm, vs differentiation solution group, read-out: inhibition rate on differentiation of 3T3-L1 preadipocytes). Besides, the inhibition at 40 µM in experiment [1] (6 h) amounted to 28.9%; in the experiment with 3T3-L1 preadipocytes (Mus musculus, 3T3-L1, 40 μM, 8th day of differentiation, oil red O, absorbance 490 nm, vs differentiation solution group, read-out: inhibition rate on differentiation of 3T3-L1 preadipocytes) it was 56.4%. Also, in the experiment with 3T3-L1 preadipocytes, the “content of lipid droplets after oil red O staining” value is recorded as “decreased significantly”.
On to Momordicoside G, for which the “hepatic gluconeogenesis inhibitory activity” value in experiment [1] (setting [2]) was 20.75%; in experiment [1] (setting [3]), 34.42%. Moreover, in the experiment with 3T3-L1 preadipocytes, the “content of lipid droplets after oil red O staining” value is listed as “decreased significantly”. For the same molecule, the “inhibition rate on differentiation of 3T3-L1 preadipocytes” value in the experiment on 3T3-L1 preadipocytes (20 μM, 8th day of differentiation, oil red O, absorbance 490 nm, vs differentiation solution group) stood at 23.77%; in the experiment with 3T3-L1 preadipocytes (40 μM, 8th day of differentiation, oil red O, absorbance 490 nm, vs differentiation solution group), 51.27%.

(Values after US12006310B2, “Preparation and application of triterpenoids with effect of improving glucose and lipid metabolism disorders” (SERICULTURAL&AGRI-FOOD RESEARCH INSTITUTE GUANGDONG ACADEMY …, priority 2022, dated 2024).)
